Source: patent US8178709B2, “Iron preparation suitable for pharmaceutical formulation and process for the preparation thereof” (BioLink Life Sciences, Inc., priority 2009, dated 2012)

Legend:
macrophages = conditions: ferric citrate-treated macrophages; cited from earlier work
human apotransferrin = human apotransferrin (Homo sapiens, UniProt P02787); assay: Iron binding to human apotransferrin (method of Bates, absorbance at 470 nm); conditions: Tris buffer with bicarbonate, pH 7.5, 25.0° C., FIG. 1
Source text: The major iron transport pool in human serum is iron bound to apotransferrin, an 80 kDa bilobal protein with two iron binding sites. The function of apotransferrin is: i) to bind iron and as transferrin (iron-laden apotransferrin) move iron from storage depots (ferritin) to various cell receptors; ii) to prevent iron from engaging in redox reactions which produce toxic free radicals; and iii) to prevent bacterial acquisition of this essential nutrient. Consequently, the best way to introduce iron into the normal metabolic pool is to deliver it to apotransferrin. […] Therefore, we measured the kinetics of Fe-transferrin formation from iron preparations of the invention and compared the kinetics to the kinetics of Fe-transferrin formation from commercial soluble ferric pyrophosphate and ferric sulfate-NTA complex at identical conditions according to the method of Bates, et al. [Bates, G. W., Billups, C. […]
The following test articles were evaluated in this study: Products 2-1 through 2-4 (described in Example 2); soluble ferric pyrophosphate (SFP), lot 112362 manufactured by The Dr. Paul Lohmann Chemical Company, Emmerthal, Germany (“Lohmann”); and ferric sulfate:NTA chelate.
Experimental Details. […] The binding of iron to apotransferrin was monitored at 470 nm, the absorption maximum for ferric transferrin. […]

Sequence of human apotransferrin (P02787 20-698): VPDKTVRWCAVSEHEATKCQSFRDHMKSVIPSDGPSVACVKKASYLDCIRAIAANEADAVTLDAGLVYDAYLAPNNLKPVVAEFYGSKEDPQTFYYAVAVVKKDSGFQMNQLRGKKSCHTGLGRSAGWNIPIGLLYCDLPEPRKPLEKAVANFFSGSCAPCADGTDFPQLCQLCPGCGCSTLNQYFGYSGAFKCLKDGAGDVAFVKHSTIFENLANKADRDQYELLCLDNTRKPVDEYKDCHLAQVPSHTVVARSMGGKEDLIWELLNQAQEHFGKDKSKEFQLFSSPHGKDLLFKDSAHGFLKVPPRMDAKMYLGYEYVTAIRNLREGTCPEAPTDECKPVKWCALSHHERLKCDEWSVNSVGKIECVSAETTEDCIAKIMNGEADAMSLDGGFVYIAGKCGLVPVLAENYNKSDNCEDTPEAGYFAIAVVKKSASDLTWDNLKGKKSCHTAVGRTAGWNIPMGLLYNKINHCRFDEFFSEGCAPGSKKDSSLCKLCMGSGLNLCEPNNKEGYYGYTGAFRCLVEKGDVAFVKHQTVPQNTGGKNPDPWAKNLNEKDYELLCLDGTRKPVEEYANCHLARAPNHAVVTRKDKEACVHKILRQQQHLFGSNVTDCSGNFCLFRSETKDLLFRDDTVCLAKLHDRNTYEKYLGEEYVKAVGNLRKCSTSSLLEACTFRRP

Extent (efficiency) of iron uptake by human apotransferrin (human apotransferrin)	Substance	Level of lipid peroxidation (macrophages)	Phagocytic capacity (macrophages)
	ferric citrate	significantly elevated	inhibited in a dose-related manner
near quantitative efficiency	soluble ferric pyrophosphate		
near quantitative efficiency	ferric sulfate:NTA chelate [ferric sulfate-NTA chelate]		
